Tests used:
[1] = test system: post-junctional α₁-adrenoceptors; test: Post-junctional α₁-adrenoceptor agonism: contraction of rings of rabbit aorta in comparison with noradrenaline; settings: agonist contraction in comparison with noradrenaline
Procedure: Post-junctional α₁ activity was determined using a method similar to that for post-junctional α₂ activity, but using rings of rabbit aorta. Contractions of this tissue are mediated by post-junctional α₁-adrenoceptors (Docherty et al. 1981), and so the pD2 and intrinsic activity (IA) of α₁-adrenoceptor agonists were calculated from their ability to contract the rings of aorta in comparison with noradrenaline.

α2-Adrenoceptor = target: T1, α2-Adrenoceptor (Homo sapiens, UniProt P08913); test: α2-Adrenoceptor binding: [³H] Rauwolscine displacement on human platelet membranes; settings: [³H] Rauwolscine (0.5-1.0 nM), 30 minutes at 30°C, Cheng Prussoff equation, read-out: Binding Affinity. Ki
T1 construct: Rauwolscine; from tissue; host or cells: human platelet membranes
T1 sequence (P08913 1-465): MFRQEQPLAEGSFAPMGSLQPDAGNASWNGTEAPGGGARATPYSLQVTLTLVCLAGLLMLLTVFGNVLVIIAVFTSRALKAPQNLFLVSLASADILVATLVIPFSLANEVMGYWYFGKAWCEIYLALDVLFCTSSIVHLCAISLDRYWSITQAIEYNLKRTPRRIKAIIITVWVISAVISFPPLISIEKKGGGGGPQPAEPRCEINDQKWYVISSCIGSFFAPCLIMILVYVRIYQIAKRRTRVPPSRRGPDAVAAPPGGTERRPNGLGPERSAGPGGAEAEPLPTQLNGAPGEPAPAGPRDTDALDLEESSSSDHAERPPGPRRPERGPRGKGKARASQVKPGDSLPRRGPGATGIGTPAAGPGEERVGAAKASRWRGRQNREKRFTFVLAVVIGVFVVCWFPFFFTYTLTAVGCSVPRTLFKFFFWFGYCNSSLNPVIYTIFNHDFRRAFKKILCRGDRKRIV
Procedure: Human platelet membranes were incubated with [³H] Rauwolscine (0.5-1.0 nM) for 30 minutes at 30 °C with varying concentrates of the drug (0.1-10,000 nM). The binding assay was stopped by filtering and rinsing on GF/B glass fibre filters.
Binding Affinity (Ki) was calculated using the Cheng Prussoff equation.

[2] = test system: post-junctional α₂-adrenoceptors; test: Post-junctional α₂-adrenoceptor antagonism: antagonism of noradrenaline contractions in ring segments of rabbit lateral saphenous vein; settings: rabbit lateral saphenous vein rings, 37°C, Krebs medium
Procedure: To determine post-junctional α₂-adrenoceptor activity, ring segments of rabbit lateral saphenous vein were mounted in organ baths at 37 °C containing Krebs medium. Contractions of this tissue in response to noradrenaline are mediated via post-junctional α₂-adrenoceptors (Alabaster et al, 1985) and therefore the ability of α₂-adrenoceptor antagonists to pharmacologically antagonise such contractions gives a quantitive measure of the activity of compounds for this receptor subtype.

Ki (α2-Adrenoceptor): 0.3 nM
Compound: C[C@@H]1c2ccccc2CN1CC1=NCCN1 [Example 1, (R)-2-[(4,5-Dihydro-1H-imidazol-2-yl)methyl]-2,3-dihydro-1-methyl-1H-isoindole]
Post-synaptic pD₂ [1]: <4
Post-synaptic PA₂ [2]: 7.3
